# Reference: the Deep4Chem optical property database
# Assay: solvent given as SMILES
structure (smiles),measurement,setting,value
COc1ccc(N(c2ccc(OC)cc2)c2ccc(-c3ccc4nc5ccccc5c(=O)n4c3)cc2)cc1,absorption maximum,in ClCCl,361 nm
CCC1=C(C)C(=O)n2c1cc1c(C)cc(C)n1c2=O,absorption maximum,in CC#N,409 nm
same,absorption maximum,in CC(C)=O,412 nm
same,absorption maximum,in CO,420 nm
same,absorption maximum,in CS(C)=O,420 nm
same,absorption maximum,in ClC(Cl)Cl,420 nm
same,absorption maximum,in c1ccccc1,423 nm
CCCCCCN1C(=O)c2cccc3c(-c4ccc(-c5cc(-c6ccc(OC)cc6)n(-c6ccccc6)n5)s4)ccc(c23)C1=O,absorption maximum,in ClCCl,403 nm
O=c1c2ccccc2nc2ccc(-c3ccc(-c4ccc(N(c5ccccc5)c5ccccc5)cc4)cc3)cn12,absorption maximum,in ClCCl,362 nm
Cc1ccc(C2=C3C=CC(C#Cc4ccccc4)=[N+]3[B-](F)(F)n3c(Cl)ccc32)cc1,absorption maximum,in C1CCCCC1,564 nm
same,absorption maximum,in C1CCOC1,560 nm
same,absorption maximum,in C1COCCO1,562 nm
same,absorption maximum,in CCOC(C)=O,558 nm
same,absorption maximum,in CO,556 nm
same,absorption maximum,in Cc1ccccc1,566 nm
same,absorption maximum,in ClC(Cl)Cl,564 nm
CCCCCCCCCCOc1ccc(C#Cc2ccc(C#Cc3ccc(OCCCCCCCCCC)c(OCCCCCCCCCC)c3)c3nc4c5ccccc5c5ccccc5c4nc23)cc1OCCCCCCCCCC,absorption maximum,in C1CCOC1,461 nm
same,absorption maximum,in Cc1ccccc1,461 nm
same,absorption maximum,in ClCCl,461 nm
C=CC(=O)Oc1ccc2cc(C=C)c(=O)oc2c1,absorption maximum,in CC#N,320 nm
c1ccc(-n2c3c(c4c2-c2ccccc2C42c4ccccc4-c4ccccc42)C2(c4ccccc4-c4ccccc42)c2ccccc2-3)cc1,absorption maximum,in C1CCOC1,375 nm
COc1ccc(C2=[N+]3C(=Nc4c(-c5cc(OC)c(OC)c(OC)c5)cc(-c5ccc(OC)cc5)n4[B-]3(F)F)C(c3cc(OC)c(OC)c(OC)c3)=C2)cc1,absorption maximum,in Cc1ccccc1,698 nm
CCCCCCOc1ccc(C#Cc2ccc(C#CC#Cc3ccc(C#Cc4ccc(OCCCCCC)c(OCCCCCC)c4)c4nsnc34)c3nsnc23)cc1OCCCCCC,absorption maximum,in CN(C)C=O,468 nm
same,absorption maximum,in COc1ccccc1,472 nm
same,absorption maximum,in Cc1ccccc1,470 nm
same,absorption maximum,in ClC(Cl)Cl,472 nm
same,absorption maximum,in ClCCCl,471 nm
same,absorption maximum,in ClCCl,469 nm
CC(C)=O,absorption maximum,in CCCCCC,279 nm
CCN1/C(=C/C=C/C2=[N+](C)c3ccccc3C2(C)C)C(C)(C)c2ccccc21,absorption maximum,in CS(C)=O,552 nm
CC(C)(C)c1ccc2c(c1)c1ccc3cccc4c5cccc6oc(=O)c2c(c65)c1c34,absorption maximum,in C1CCOC1,412 nm
CCCCCC(CC)C1(C(CC)CCCCC)c2ccccc2-c2ccc(C#Cc3cc(C#Cc4ccc5c(c4)C(C(CC)CCCCC)(C(CC)CCCCC)c4ccccc4-5)c4ccc5c(C#Cc6ccc7c(c6)C(C(CC)CCCCC)(C(CC)CCCCC)c6ccccc6-7)cc(C#Cc6ccc7c(c6)C(C(CC)CCCCC)(C(CC)CCCCC)c6ccccc6-7)c6ccc3c4c65)cc21 (centres undefined),absorption maximum,in C1CCCCC1,486 nm
same,absorption maximum,in C1CCOC1,492 nm
same,absorption maximum,in CCOC(C)=O,488 nm
same,absorption maximum,in CN(C)C=O,496 nm
same,absorption maximum,in Cc1ccccc1,488 nm
same,absorption maximum,in ClC(Cl)Cl,491 nm
same,absorption maximum,in ClCCl,492 nm
FC(F)(F)c1ccc(-n2c(-c3ccc(N(c4ccc(-c5ccc(N(c6ccc(-c7nc8c9ccccc9c9ccccc9c8n7-c7ccc(C(F)(F)F)cc7)cc6)c6ccc(-c7nc8c9ccccc9c9ccccc9c8n7-c7ccc(C(F)(F)F)cc7)cc6)cc5)cc4)c4ccc(-c5nc6c7ccccc7c7ccccc7c6n5-c5ccc(C(F)(F)F)cc5)cc4)cc3)nc3c4ccccc4c4ccccc4c32)cc1,absorption maximum,in ClCCl,376 nm
C(=C\c1c2ccccc2cc2ccccc12)/c1cnc2ccccc2c1,absorption maximum,in CC1CCCCC1,386 nm
same,absorption maximum,in CC#N,386 nm
COc1ccc(-c2oc3cccc4c5c(-c6ccc(OC)c(OC)c6)c(=N)oc6cccc(c2c34)c65)cc1OC,absorption maximum,in ClC(Cl)Cl,410 nm
Cc1ccc(N(c2ccc(C)cc2)c2ccc3c4cccc5c(N(c6ccc(C)cc6)c6ccc(C)cc6)ccc(c6cccc2c63)c54)cc1,absorption maximum,in C1CCCCC1,506 nm
same,absorption maximum,in C1CCOC1,502 nm
same,absorption maximum,in CC#N,496 nm
same,absorption maximum,in Cc1ccccc1,507 nm
same,absorption maximum,in ClCCl,473 nm
Cc1cscc1-c1cc2c3cc(-c4cscc4C)c4nc(C(F)(F)C(F)(F)C(F)(F)F)nc5c(-c6cscc6C)cc(c6cc(-c7cscc7C)c7nc(C(F)(F)C(F)(F)C(F)(F)F)nc1c7c26)c3c45,absorption maximum,in C1CCOC1,493 nm
c1ccc(N2c3ccc4ccccc4c3-c3c4ccccc4nc[n+]3[B-]2(c2ccccc2)c2ccccc2)cc1,absorption maximum,in C1CCC2CCCCC2C1,542 nm
same,absorption maximum,in C1CCCCC1,539 nm
same,absorption maximum,in C1CCOC1,535 nm
same,absorption maximum,in CC#N,527 nm
same,absorption maximum,in CC(C)=O,530 nm
same,absorption maximum,in CCCCCC,537 nm
same,absorption maximum,in CCOC(C)=O,532 nm
same,absorption maximum,in CN(C)C=O,532 nm
same,absorption maximum,in Cc1ccccc1,539 nm
same,absorption maximum,in ClC(Cl)Cl,541 nm
CCCCCCC1(CCCCCC)c2cc(-c3nc(-c4ccc5c(c4)C(CCCCCC)(CCCCCC)c4cc(N6c7ccccc7Oc7ccccc76)ccc4-5)nc(-c4ccc5c(c4)C(CCCCCC)(CCCCCC)c4cc(N6c7ccccc7Oc7ccccc76)ccc4-5)n3)ccc2-c2ccc(N3c4ccccc4Oc4ccccc43)cc21,absorption maximum,in C1CCOC1,391 nm
CCC1=C(C)c2cc3ccccc3c(=O)n2C1=O,absorption maximum,in CC#N,369 nm
same,absorption maximum,in CCCCCC,366 nm
same,absorption maximum,in CO,370 nm
same,absorption maximum,in CS(C)=O,373 nm
same,absorption maximum,in ClC(Cl)Cl,371 nm
CCCCCCCCN1C(=O)c2ccc3c4c(-c5ccc(N(c6ccccc6)c6ccccc6)cc5)cc5c6c(cc(-c7ccc(N(c8ccccc8)c8ccccc8)cc7)c(c7ccc(c2c37)C1=O)c64)C(=O)N(CCCCCCCC)C5=O,absorption maximum,in ClC(Cl)Cl,606 nm
CC1(C)C(/C=C/C2=C(Oc3ccc(CCN=C=S)cc3Br)C(=C/C=C3/N(CCCS(=O)(=O)[O-])c4ccccc4C3(C)C)/CCC2)=[N+](CCCS(=O)(=O)[O-])c2ccccc21,absorption maximum,in CO,768 nm
COC(=O)c1ccc(/C=C2\C=C(c3ccccc3)NC2=O)cc1,absorption maximum,in C1COCCO1,437 nm
CCCCN(CCCC)c1ccc(/C=C/c2ccc3nc(/C=C/c4ccc(N(C)C)cc4)c(=O)n(CCC)c3c2)cc1,absorption maximum,in C1COCCO1,481 nm
same,absorption maximum,in CC#N,488 nm
same,absorption maximum,in ClCCl,494 nm
c1ccc(-c2nc(-c3ccc(N4c5ccccc5Oc5ccccc54)cc3)nn2-c2ccc(N3c4ccccc4Oc4ccccc43)cc2)nc1,absorption maximum,in ClCCl,333 nm
CCCCN1C(=O)c2cccc3cc(C#CC#Cc4cc5c6c(cccc6c4)C(=O)N(CCCC)C5=O)cc(c23)C1=O,absorption maximum,in ClCCl,314 nm
O=C(c1cc(F)c(O)cc1F)c1cc(F)c(O)cc1F,absorption maximum,in CCO,306 nm
CN(C)c1ccc(C2=Cc3c4ccccc4c4ccccc4[n+]3[B-](F)(F)O2)cc1,absorption maximum,in C1CCOC1,478 nm
same,absorption maximum,in C1COCCO1,477 nm
same,absorption maximum,in CC1CCCCC1,474 nm
same,absorption maximum,in CC#N,476 nm
same,absorption maximum,in CCOC(C)=O,475 nm
same,absorption maximum,in CCOCC,472 nm
same,absorption maximum,in CN(C)C=O,484 nm
same,absorption maximum,in CO,475 nm
same,absorption maximum,in COC(C)=O,477 nm
same,absorption maximum,in ClC(Cl)Cl,483 nm
FC(F)(F)C(F)(F)C(F)(F)C1=NC2=C(Oc3ccccc3)C=C3c4cc(Oc5ccccc5)c5nc(C(F)(F)C(F)(F)C(F)(F)F)nc6c(Oc7ccccc7)cc(c4c56)=C4C=C(Oc5ccccc5)C(=N1)C2C34 (centres undefined),absorption maximum,in C1CCOC1,498 nm
CCN1c2ccc(/C=N/Nc3ccccn3)cc2Sc2cc(-c3ccc(OC)cc3)ccc21,absorption maximum,in C1CCOC1,381 nm
same,absorption maximum,in CS(C)=O,386 nm
same,absorption maximum,in Cc1ccccc1,380 nm
same,absorption maximum,in ClCCl,383 nm
CCCCCCCCC1(CCCCCCCC)c2cc(-c3ccc(C(=O)OC)cc3)ccc2-c2ccc(-c3ccc(C(=O)OC)cc3)cc21,absorption maximum,in ClC(Cl)Cl,341 nm
CC1=CC(C)=[N+]2C1=C(c1ccc(I)cc1)c1c(C)cc(C)n1[B-]2(Oc1ccc(Cl)cc1)Oc1ccc(Cl)cc1,absorption maximum,in ClC(Cl)Cl,506 nm
FC(F)(F)c1cc2n(n1)[B-]1(c3ccccc3Oc3ccccc31)[n+]1ccc3ccccc3c1-2,absorption maximum,in C1CCCCC1,375 nm
same,absorption maximum,in Cc1ccccc1,378 nm
same,absorption maximum,in ClCCl,372 nm
COc1cc2c(cc1-c1ccsc1)Cc1c3c(c4c(c1-2)-c1cc(OC)c(-c2ccsc2)cc1C4)C(=O)N(CCC(C)C)C3=O,absorption maximum,in C1CCOC1,417 nm
COc1ccc(C2CC(=O)Oc3c2c2nc4ccccc4nc2c2ccccc32)cc1 (centres undefined),absorption maximum,in ClC(Cl)Cl,406 nm
CCCCCCC(CCCCCC)N1C(=O)c2cccc3c(-c4cc(OC)c(OC)c(OC)c4)ccc(c23)C1=O,absorption maximum,in CCCCCC,354.8 nm
same,absorption maximum,in CCCCCCCCCCCCCC,357 nm
same,absorption maximum,in CCCCCCCCCCCO,362.6 nm
same,absorption maximum,in CCCCO,361.4 nm
same,absorption maximum,in CN(C)C=O,365.6 nm
same,absorption maximum,in Cc1ccccc1,360.8 nm
same,absorption maximum,in ClC(Cl)Cl,362.2 nm
CCCCCCCCC1(CCCCCCCC)c2cc3c(cc2-c2sc(-c4ccc(/C=C5\SC(N6CCCCC6)=NC5=O)c5nsnc45)cc21)C(CCCCCCCC)(CCCCCCCC)c1cc(-c2ccc(/C=C4\SC(N5CCCCC5)=NC4=O)c4nsnc24)sc1-3,absorption maximum,in ClC(Cl)Cl,606 nm
N#Cc1cccc2cc[nH]c12,absorption maximum,in C1COCCO1,307.36 nm
same,absorption maximum,in CC#N,309.69 nm
same,absorption maximum,in O,308 nm
C(=C\c1cc[n+]2ccc(/C=C/c3cc[nH]c3)cc2c1)/c1cc[nH]c1,absorption maximum,in CO,457 nm
CCOC(=O)/N=c1/oc2cc(OC)cc(OC)c2cc1C#N,absorption maximum,in ClCCl,376 nm
N#Cc1ccc(-c2cn3cc(C#N)c[n+]3[n-]2)cc1,absorption maximum,in ClCCl,360 nm
Cc1ccc2c(c1)C1(c3ccccc3-c3ccccc31)c1cc(C)ccc1N2c1ccc(-c2ncccn2)cc1,absorption maximum,in Cc1ccccc1,380 nm
Cc1cc(C)c(C2=[N+]3C(=Cc4c(C)cc(C)n4[B-]3(F)F)c3ccccc32)[nH]1,absorption maximum,in C1CCOC1,609 nm
same,absorption maximum,in CC#N,601 nm
same,absorption maximum,in CCCCCC,610 nm
same,absorption maximum,in CO,603 nm
same,absorption maximum,in Cc1ccccc1,616 nm
same,absorption maximum,in ClCCl,609 nm
N#CC1=CC(/C=C/c2ccccc2)=CC(C#N)=P1(c1ccccc1)c1ccccc1,absorption maximum,in ClC(Cl)Cl,506 nm
Cc1cc(Br)cn(Cn2cccc(C)c2=O)c1=N,absorption maximum,in CC(=O)O,310 nm
O=C1c2cccc3cc(C#CC#Cc4cc5c6c(cccc6c4)C(=O)N(c4ccccc4)C5=O)cc(c23)C(=O)N1c1ccccc1,absorption maximum,in ClCCl,326 nm
